Assay [1] deals with CD19+CD5+ CLL cells. Nature of the assay: SCNP drug-induced signaling, Example 2 (4 and 24 hours). Format: cell-based, human.
Method: Peripheral blood mononuclear cells (PBMCs) were obtained from 29 patients with CLL treated on a clinical trial at “La Sapienza” University of Rome between November 2008 and January 2010 at the time of but prior to the initiation of first treatment. All patients provided informed consent for research purposes. SCNP assays were performed blinded to clinical outcomes. […] SCNP analysis was performed to quantitatively measure 18 intracellular signaling proteins within CD19+CD5+ CLL cells using a panel of 14 disease-relevant modulators (FIG. 27) as follows:
SCNP analysis was performed to quantitatively measure intracellular signaling proteins within CD19+CD5+ CLL cells using a panel of disease-relevant modulators. First, the cryopreserved PBMC samples were thawed at 37° C., stained for viability with Amine Aqua (Invitrogen, Carlsbad, Calif.), resuspended in RPMI with 10% FBS and aliquoted at 100,000 cells per well 96-deepwell plates. Cells were rested for 2 hours at 37° C. followed by modulation. Short duration modulation was performed for 10 minutes at 37° C. with the following modulators: 20 μg/mL polyclonal goat F(ab′)2 anti-human IgM (Southern Biotech, Birmingham, Ala.), 5 μg/mL monoclonal anti-human IgD (BD Biosciences, San Jose, Calif.), 10 ng/mL of SDF1□ (R&D Systems, Minneapolis, Minn.), and the combination of 20 μg/mL polyclonal goat F(ab′)2 anti-human IgM and 10 ng/mL of SDF1□□□15 minute modulations were performed for the following: 0.5 μg/mL CD40L (R&D Systems, Minneapolis, Minn.), 50 ng/mL IL-2 (R&D Systems, Minneapolis, Minn.), 50 ng/mL IL-4 (BD Biosciences, San Jose, Calif.), 50 ng/mL IL-21 (Peprotech, Rocky Hill, N.J.), 1000 IU/mL of IFN□ (PBL InterferonSource, Piscataway, N.J.), 5 μg/mL R848 (Invivogen, San Diego, Calif.), and 1 μM thapsigargin (EMD Millipore, Billerica, Mass.). […]
Assay [2] relates to CLL cells. The conditions noted are these: in vitro treatment; Buchner 2009, Gobessi 2009; cited from earlier work.
Assay [3] concerns CD19+CD5+ CLL cells. Nature of the assay: SCNP modulated signaling, Example 2 (10-15 min modulation). Format: cell-based, human. The conditions noted are these: SDF1α 10 ng/mL. As for the experimental part: Peripheral blood mononuclear cells (PBMCs) were obtained from 29 patients with CLL treated on a clinical trial at “La Sapienza” University of Rome between November 2008 and January 2010 at the time of but prior to the initiation of first treatment. All patients provided informed consent for research purposes. SCNP assays were performed blinded to clinical outcomes. Diagnosis and initiation of treatment for B-CLL were based on 1996 National Cancer Institute-Working Group ([…] 2008 Guidelines for Diagnosis and Treatment of CLL. Clinical and biological disease characteristics at diagnosis are summarized in FIG. 28 IGHV mutational status and expression of CD38 and ZAP-70 were determined. […] SCNP analysis was performed to quantitatively measure intracellular signaling proteins within CD19+CD5+ CLL cells using a panel of disease-relevant modulators. […] Cells were rested for 2 hours at 37° C. followed by modulation. Short duration modulation was performed for 10 minutes at 37° C. with the following modulators: 20 μg/mL polyclonal goat F(ab')2 anti-human IgM (Southern Biotech, Birmingham, Ala.), 5 μg/mL monoclonal anti-human IgD (BD Biosciences, San Jose, Calif.), 10 ng/mL of SDF1[…] (R&D Systems, Minneapolis, Minn.), and the combination of 20 μg/mL polyclonal goat F(ab')2 anti-human IgM and 10 ng/mL of SDF1[…]15 minute modulations were performed for the following: 0.5 μg/mL CD40L (R&D Systems, Minneapolis, Minn.), 50 ng/mL IL-[…] […] The raw instrument fluorescence intensities were converted to calibrated intensity metrics (ERFs, Equivalent Number of Reference Fluorophores). […] The term “signaling node” is used to refer to a proteomic readout in the presence or absence of a specific modulator. For example, the response to anti-IgM modulation can be measured using p-ERK as a readout. […] The term “metric” is used to refer to the quantification method used to evaluate the functional response of signaling proteins. […]

In a further assay the test system is CD19+CD5+B-CLL cells. Nature of the assay: SCNP modulated signaling, Example 3 (B-CLL vs healthy B cells). Format: cell-based, human. The conditions noted are these: CLL samples compared to healthy controls. Here is the method: Peripheral blood mononuclear cells (PBMCs) were obtained from 39 B-CLL patients between 2006 and 2007, Rai stage 0-II, at different time points during their clinical course but prior to the initiation of treatment. PBMCs from four age-matched healthy donors were collected at the Stanford Blood Center. All donors provided informed consent for research purposes. SCNP assays were performed blinded to clinical data. Diagnosis and initiation of treatment for B-CLL were based on 1996 National Cancer Institute-Working Group (NCI-WG)/IWCLL 2008 Guidelines for Diagnosis and Treatment of CLL. The median age of CLL patients was slightly lower than the typical CLL population (58 years vs 65-70). Of the 39 samples evaluated, 15 expressed CD38 (≧30% of cells) and 20 expressed ZAP-70 (≧20% of cells); 19 were IGHV unmutated (98% cutoff); and the cytogenetic risk groups were evenly represented. IGHV mutational status and expression of CD38 and ZAP-70 were determined. […]
SCNP analysis quantitatively measured intracellular signaling proteins within CD19+CD5+B-CLL cells using a panel of disease-relevant modulators (FIG. 27, FIG. 35A, B). […]
Flow cytometry data were gated using WinList (Verity House Software, Topsham, Me.). […] The raw instrument fluorescence intensities were converted to calibrated intensity metrics (ERFs, Equivalent Number of Reference Fluorophores). […]

Assay [4] deals with CLL cells. The conditions noted are these: inhibition of AKT phosphorylation by the PI3K inhibitor; cited from earlier work.
The next assay relates to healthy B cells. Here is the method:
(§1) Cryopreserved PBMCs, 23 from CLL patients and 7 from healthy donors, were rapidly thawed in a 37° C. water bath. 1 mL of pre-warmed thawing media (PBS 1% FBS, 2 mM EDTA) was added dropwise to each of the cryovials. Thawed cells were transferred to a tube containing 8 mL thawing media. Tubes were inverted and centrifuged at 200×g for 8 minutes at room temperature. Supernatant was decanted, cell pellets were resuspended in 1 mL RPMI 1640 1% FCS and filtered over 70 um nylon mesh (BD Falcon) to remove cell clumps and debris. 11 mL of additional RPMI 1640 1% FCS was added to the samples to wash. A 20 uL aliquot was removed from each sample and placed into a solution of PBS 4% FCS CD45 Alexa Flour 700 and Propidium Iodide for viability and counting on a BDLSRII cytometer. The remaining volume of cell suspension was centrifuged at 200×g for 8 minutes at room temperature
For single agent modulators 150 μL of 10× solutions were arrayed into wells of a 96-well v-bottom plate (Nunc). Corresponding daughter plates were taken from the 37° C. incubator, and […] of RPMI1640 1% FCS was added to each well using the Liquidator 96-well pipettor. […] The daughter plates were pulse vortexed for 5 seconds and placed into a 37° C. water bath for 10 minutes.
Corresponding daughter plates were taken from the 37° C. incubator. […]
Antibody cocktails for signaling and apoptosis readouts were prepared in FACS Buffer. […]

Another assay concerns CLL B cells. Nature of the assay: SCNP phospho-flow: H2O2-modulated BCR signaling, CLL samples. Format: cell-based, human. The conditions noted are these: after exposure to H2O2. Here is the method:
as §1, with “Thawed cells were transferred to a tube containing 8 mL thawing media. Tubes were inverted and centrifuged at 200×g for 8 minutes at room temperature.” left out, “cytometer.” for “cytometer. The remaining volume of cell suspension was centrifuged at 200×g for 8 minutes at room temperature”
At the end of the 10 minute incubation […] 5.6% PFA (final 1.6%) was added to each well to fix the cells.
At the end of the 10 minute incubation 200 uL 5.6% PFA (final 1.6%) was added to each well to fix the cells.
Cells were permeabilized by adding 600 µL of ice cold 100% methanol to each well using the Costar 96-channel pipettor (Costar). […]
To test whether phenotypic characterization of CLL physiology could be discerned based on responses of cells to extracellular stimuli, modulated BCR intracellular signaling was determined either in response to anti-μ (ligand-dependent) or post H2O2 treatment to evaluate the contribution of tonic signaling (ligand-independent) to BCR output. […]

Setting [5] is: 24 hours, samples with low spontaneous apoptosis.

Data on 5 compounds can be found in patent US20140093903A1, “METHODS FOR DIAGNOSIS, PROGNOSIS AND METHODS OF TREATMENT” (Nodality, Inc., priority 2012, published 2014).

Bounds are passed on as bounds.

As to `Cn1c(CCCC(=O)O)nc2cc(N(CCCl)CCCl)ccc21` [bendamustine], in the assay with CD19+CD5+ CLL cells [1] (setting [5]), the “induced p-53BP1 signaling, bendamustine versus fludarabine” value is reported as “greater” and the “induced p-H2AX signaling, bendamustine versus fludarabine” value is on record as “equivalent”. Further, in the assay on CD19+CD5+ CLL cells [1] (CLL samples with 17p deletion, 24 hour, additional cohort of 7 CLL samples), the “p21 induction in response to bendamustine” value is given as “impaired p21 induction”.

As to `COc1cc(Nc2ncc(F)c(Nc3ccc4c(n3)NC(=O)C(C)(C)O4)n2)cc(OC)c1OC` [R406], the “apoptotic response of CLL cells” value in the assay with CLL cells [2] was “mediated an apoptotic response”.

For the compound SDF1α, in the assay on CD19+CD5+ CLL cells [3] (10 min, moderate signal), the SDF1α→p-AKT signal is at least 0.25 log 2Fold and the SDF1α→p-ERK signal is recorded as at least 0.25 log 2Fold. For the same compound, the “p-ERK signal, median log 2Fold” value with CD19+CD5+ CLL cells [3] (10 min modulation, αIgM 20 μg/mL) was determined as 0.38 log 2Fold. Besides, the “SDF1α→p-AKT modulation as a single stimulus” value with CD19+CD5+B-CLL cells is on record as “weaker in nearly all CLL samples”.

For the compound `CC[C@H](Nc1ncnc2[nH]cnc12)c1nc2cccc(F)c2c(=O)n1-c1ccccc1` [CAL-101/GS-1101], the “CD40L protection from spontaneous apoptosis” value in the assay on CLL cells [4] was “blocked”.

As to `OO` [H2O2, hydrogen peroxide], the “anti-μ-mediated BCR signaling in presence of H2O2” value with healthy B cells (B cells from healthy donors) is “further potentiated”. In the assay with healthy B cells (healthy B cells), the “response of all signaling molecules except Akt to H2O2 treatment alone” value was “minimally responsive”. Further, the “B cells with activated Syk and BLNK” value in the assay with CLL B cells (sample CLL007 (Group II)) is “approximately 2%”; in the assay on CLL B cells (sample CLL021 (Group II)), 5-6%.
